# Experimental data published in ChEMBL document CHEMBL3885881, “DrugMatrix”.
# Organism: Rattus norvegicus
# Test: DrugMatrix - Regimen: Daily Repeat
# Format: toxicity, organism-based, Sprague-Dawley
# Parameters: regimen Daily Repeat, gender Male, age 6-8 weeks
# Conditions: in vivo, po, route oral GAVAGE, vehicle 100 % WATER; for ABSOLUTE BASOPHIL / ABSOLUTE EOSINOPHIL / ABSOLUTE LYMPHOCYTE / ABSOLUTE MONOCYTE / ABSOLUTE SEGMENTED NEUTROPHIL / BASOPHIL / EOSINOPHIL / ERYTHROCYTE COUNT / HEMATOCRIT / HEMOGLOBIN / LEUKOCYTE COUNT / LYMPHOCYTE / MEAN CORPUSCULAR HEMOGLOBIN / MEAN CORPUSCULAR HEMOGLOBIN CONCENTRATION / MEAN CORPUSCULAR VOLUME / MONOCYTE / NEUTROPHIL / NUCLEATED RED BLOOD CELLS / PLATELET COUNT: tissue Blood; for ALANINE AMINOTRANSFERASE / ALBUMIN / ALKALINE PHOSPHATASE / ASPARTATE AMINOTRANSFERASE / BLOOD UREA NITROGEN / CARBON DIOXIDE / CHLORIDE / CHOLESTEROL / CREATINE PHOSPHOKINASE / CREATININE / GLUCOSE / LACTATE DEHYDROGENASE / LIPASE / PHOSPHORUS / POTASSIUM / SODIUM / TOTAL BILIRUBIN / TOTAL PROTEIN / URIC ACID: tissue Plasma
# [1] = 500 mg/kg, 120 h, dose level Low, time 5 day
# [2] = 2000 mg/kg, 72 h, dose level High, time 3 day
# [3] = 2000 mg/kg, 120 h, dose level High, time 5 day
compound,measurement,setting,value
NCCCCCC(=O)O [AMINOCAPROIC ACID],ABSOLUTE BASOPHIL,[1],0 CELLS/uL
same,ABSOLUTE EOSINOPHIL,[1],0 CELLS/uL
same,ABSOLUTE LYMPHOCYTE,[1],13712 CELLS/uL
same,ABSOLUTE MONOCYTE,[1],316 CELLS/uL
same,ABSOLUTE SEGMENTED NEUTROPHIL,[1],872 CELLS/uL
same,BASOPHIL,[1],0%
same,EOSINOPHIL,[1],0%
same,ERYTHROCYTE COUNT,[1],5.42 x10E6/uL
same,HEMATOCRIT,[1],34.37%
same,HEMOGLOBIN,[1],13.87 G/DL
same,LEUKOCYTE COUNT,[1],14.9 x10E3/uL
same,LYMPHOCYTE,[1],92.33%
same,MEAN CORPUSCULAR HEMOGLOBIN,[1],25.67 pg
same,MEAN CORPUSCULAR HEMOGLOBIN CONCENTRATION,[1],40.37 G/DL
same,MEAN CORPUSCULAR VOLUME,[1],63.53 fL
same,MONOCYTE,[1],2%
same,NEUTROPHIL,[1],5.67%
same,NUCLEATED RED BLOOD CELLS,[1],0 /100WBC
same,PLATELET COUNT,[1],1257.67 x10E3/uL
same,ALANINE AMINOTRANSFERASE,[1],51.33 u/L
same,ALBUMIN,[1],4.4 G/DL
same,ALKALINE PHOSPHATASE,[1],417.33 u/L
same,ASPARTATE AMINOTRANSFERASE,[1],75.67 u/L
same,BLOOD UREA NITROGEN,[1],15.33 mg/dL
same,CARBON DIOXIDE,[1],26.67 mmol/L
same,CHLORIDE,[1],101.67 MEQ/L
same,CHOLESTEROL,[1],72.67 mg/dL
same,CREATINE PHOSPHOKINASE,[1],253.67 u/L
same,CREATININE,[1],0.15 mg/dL
same,GLUCOSE,[1],153.33 mg/dL
same,LACTATE DEHYDROGENASE,[1],102.33 u/L
same,LIPASE,[1],9 u/L
same,PHOSPHORUS,[1],11.07 mg/dL
same,POTASSIUM,[1],6.75 MEQ/L
same,SODIUM,[1],143.73 MEQ/L
same,TOTAL BILIRUBIN,[1],0.2 mg/dL
same,TOTAL PROTEIN,[1],6.1 G/DL
same,URIC ACID,[1],1.57 mg/dL
same,ABSOLUTE BASOPHIL,[2],0 CELLS/uL
same,ABSOLUTE EOSINOPHIL,[2],99.33 CELLS/uL
same,ABSOLUTE LYMPHOCYTE,[2],12832.33 CELLS/uL
same,ABSOLUTE MONOCYTE,[2],0 CELLS/uL
same,ABSOLUTE SEGMENTED NEUTROPHIL,[2],1535 CELLS/uL
same,BASOPHIL,[2],0%
same,EOSINOPHIL,[2],0.67%
same,ERYTHROCYTE COUNT,[2],5.61 x10E6/uL
same,HEMATOCRIT,[2],36.13%
same,HEMOGLOBIN,[2],14.13 G/DL
same,LEUKOCYTE COUNT,[2],14.47 x10E3/uL
same,LYMPHOCYTE,[2],88.67%
same,MEAN CORPUSCULAR HEMOGLOBIN,[2],25.17 pg
same,MEAN CORPUSCULAR HEMOGLOBIN CONCENTRATION,[2],39.1 G/DL
same,MEAN CORPUSCULAR VOLUME,[2],64.4 fL
same,MONOCYTE,[2],0%
same,NEUTROPHIL,[2],10.67%
same,NUCLEATED RED BLOOD CELLS,[2],0.33 /100WBC
same,PLATELET COUNT,[2],1333.33 x10E3/uL
same,ALANINE AMINOTRANSFERASE,[2],41.67 u/L
same,ALBUMIN,[2],4.27 G/DL
same,ALKALINE PHOSPHATASE,[2],386.67 u/L
same,ASPARTATE AMINOTRANSFERASE,[2],89 u/L
same,BLOOD UREA NITROGEN,[2],18 mg/dL
same,CARBON DIOXIDE,[2],22.67 mmol/L
same,CHLORIDE,[2],103 MEQ/L
same,CHOLESTEROL,[2],61.33 mg/dL
same,CREATINE PHOSPHOKINASE,[2],502 u/L
same,CREATININE,[2],0.2 mg/dL
same,GLUCOSE,[2],180 mg/dL
same,LACTATE DEHYDROGENASE,[2],295 u/L
same,LIPASE,[2],11 u/L
same,PHOSPHORUS,[2],11.37 mg/dL
same,POTASSIUM,[2],5.97 MEQ/L
same,SODIUM,[2],144.2 MEQ/L
same,TOTAL BILIRUBIN,[2],0.27 mg/dL
same,TOTAL PROTEIN,[2],5.77 G/DL
same,URIC ACID,[2],1.03 mg/dL
same,ABSOLUTE BASOPHIL,[3],0 CELLS/uL
same,ABSOLUTE EOSINOPHIL,[3],109 CELLS/uL
same,ABSOLUTE LYMPHOCYTE,[3],13720 CELLS/uL
same,ABSOLUTE MONOCYTE,[3],222 CELLS/uL
same,ABSOLUTE SEGMENTED NEUTROPHIL,[3],1882.33 CELLS/uL
same,BASOPHIL,[3],0%
same,EOSINOPHIL,[3],0.67%
same,ERYTHROCYTE COUNT,[3],5.57 x10E6/uL
same,HEMATOCRIT,[3],34.6%
same,HEMOGLOBIN,[3],13.8 G/DL
same,LEUKOCYTE COUNT,[3],15.93 x10E3/uL
same,LYMPHOCYTE,[3],86.33%
same,MEAN CORPUSCULAR HEMOGLOBIN,[3],24.83 pg
same,MEAN CORPUSCULAR HEMOGLOBIN CONCENTRATION,[3],39.87 G/DL
same,MEAN CORPUSCULAR VOLUME,[3],62.2 fL
same,MONOCYTE,[3],1.33%
same,NEUTROPHIL,[3],11.67%
same,NUCLEATED RED BLOOD CELLS,[3],0 /100WBC
same,PLATELET COUNT,[3],1463.33 x10E3/uL
same,ALANINE AMINOTRANSFERASE,[3],41.67 u/L
same,ALBUMIN,[3],4.27 G/DL
same,ALKALINE PHOSPHATASE,[3],291 u/L
same,ASPARTATE AMINOTRANSFERASE,[3],77 u/L
same,BLOOD UREA NITROGEN,[3],17.67 mg/dL
same,CARBON DIOXIDE,[3],25.33 mmol/L
same,CHLORIDE,[3],101 MEQ/L
same,CHOLESTEROL,[3],60.67 mg/dL
same,CREATINE PHOSPHOKINASE,[3],281 u/L
same,CREATININE,[3],0.15 mg/dL
same,GLUCOSE,[3],157.33 mg/dL
same,LACTATE DEHYDROGENASE,[3],298.67 u/L
same,LIPASE,[3],9.33 u/L
same,PHOSPHORUS,[3],10.73 mg/dL
same,POTASSIUM,[3],6.02 MEQ/L
same,SODIUM,[3],141.63 MEQ/L
same,TOTAL BILIRUBIN,[3],0.17 mg/dL
same,TOTAL PROTEIN,[3],6.07 G/DL
same,URIC ACID,[3],0.8 mg/dL
